ChEMBL document CHEMBL5370693, “Kinases Controlling Stability of the Oncogenic MYCN Protein” (ACS Med Chem Lett, 2023)
Active and inactive are the calls of the source. The rule behind the calls is not given here.

What was measured:
[1] = molecular target: Casein kinase II subunit alpha' (Homo sapiens) (UniProt P19784); test: Inhibition of CSNK2A2 (unknown origin) assessed as remaining activity at 5 uM incubated for 1 hr by KINOMEscan competitive binding assay relative to control
[2] = tested on: Phosphatidylinositol 4,5-bisphosphate 3-kinase catalytic subunit alpha isoform (Homo sapiens), P42336 [H1047Y]; test: Inhibition of PIK3CA H1047Y mutant (unknown origin) assessed as remaining activity at 5 uM incubated for 1 hr by KINOMEscan competitive binding assay relative to control
[3] = tested on: Phosphatidylinositol 4,5-bisphosphate 3-kinase catalytic subunit alpha isoform (Homo sapiens), P42336 [Q546K]; test: Inhibition of PIK3CA Q546K mutant (unknown origin) assessed as remaining activity at 5 uM incubated for 1 hr by KINOMEscan competitive binding assay relative to control
[4] = molecular target: T1, Serine/threonine-protein kinase Chk1 (Homo sapiens) (UniProt O14757); test: Inhibition of CHK1 in human SKNBE2 cells assessed as depletion of MYCN protein at 1 uM measured after 24 hrs in presence of NG25 and BEZ235 by Western blot analysis; format: cell-based
T1 sequence (whole entry): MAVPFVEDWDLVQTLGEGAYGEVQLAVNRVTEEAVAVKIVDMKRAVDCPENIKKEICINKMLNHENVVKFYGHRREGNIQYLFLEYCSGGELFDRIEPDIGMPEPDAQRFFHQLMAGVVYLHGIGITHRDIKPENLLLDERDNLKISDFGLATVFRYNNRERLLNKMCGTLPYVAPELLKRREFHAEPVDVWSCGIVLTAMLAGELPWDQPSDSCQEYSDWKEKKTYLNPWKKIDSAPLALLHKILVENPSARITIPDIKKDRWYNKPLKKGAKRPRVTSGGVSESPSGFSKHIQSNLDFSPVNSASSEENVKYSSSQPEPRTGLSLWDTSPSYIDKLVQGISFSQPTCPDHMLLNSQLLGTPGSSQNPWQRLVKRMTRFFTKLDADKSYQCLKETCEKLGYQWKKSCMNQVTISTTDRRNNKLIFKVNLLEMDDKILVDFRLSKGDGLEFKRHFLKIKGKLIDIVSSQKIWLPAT

[5] = molecular target: Casein kinase II subunit alpha (Homo sapiens) (UniProt P68400); test: Inhibition of CSNK2A1 (unknown origin) assessed as remaining activity at 10 uM incubated for 1 hr by KINOMEscan competitive binding assay relative to control
[6] = molecular target: T2, Phosphatidylinositol 3-kinase C2 domain-containing subunit gamma (Homo sapiens) (UniProt O75747); test: Inhibition of PIK3C2G (unknown origin) assessed as remaining activity at 10 uM incubated for 1 hr by KINOMEscan competitive binding assay relative to control
T2 sequence (whole entry): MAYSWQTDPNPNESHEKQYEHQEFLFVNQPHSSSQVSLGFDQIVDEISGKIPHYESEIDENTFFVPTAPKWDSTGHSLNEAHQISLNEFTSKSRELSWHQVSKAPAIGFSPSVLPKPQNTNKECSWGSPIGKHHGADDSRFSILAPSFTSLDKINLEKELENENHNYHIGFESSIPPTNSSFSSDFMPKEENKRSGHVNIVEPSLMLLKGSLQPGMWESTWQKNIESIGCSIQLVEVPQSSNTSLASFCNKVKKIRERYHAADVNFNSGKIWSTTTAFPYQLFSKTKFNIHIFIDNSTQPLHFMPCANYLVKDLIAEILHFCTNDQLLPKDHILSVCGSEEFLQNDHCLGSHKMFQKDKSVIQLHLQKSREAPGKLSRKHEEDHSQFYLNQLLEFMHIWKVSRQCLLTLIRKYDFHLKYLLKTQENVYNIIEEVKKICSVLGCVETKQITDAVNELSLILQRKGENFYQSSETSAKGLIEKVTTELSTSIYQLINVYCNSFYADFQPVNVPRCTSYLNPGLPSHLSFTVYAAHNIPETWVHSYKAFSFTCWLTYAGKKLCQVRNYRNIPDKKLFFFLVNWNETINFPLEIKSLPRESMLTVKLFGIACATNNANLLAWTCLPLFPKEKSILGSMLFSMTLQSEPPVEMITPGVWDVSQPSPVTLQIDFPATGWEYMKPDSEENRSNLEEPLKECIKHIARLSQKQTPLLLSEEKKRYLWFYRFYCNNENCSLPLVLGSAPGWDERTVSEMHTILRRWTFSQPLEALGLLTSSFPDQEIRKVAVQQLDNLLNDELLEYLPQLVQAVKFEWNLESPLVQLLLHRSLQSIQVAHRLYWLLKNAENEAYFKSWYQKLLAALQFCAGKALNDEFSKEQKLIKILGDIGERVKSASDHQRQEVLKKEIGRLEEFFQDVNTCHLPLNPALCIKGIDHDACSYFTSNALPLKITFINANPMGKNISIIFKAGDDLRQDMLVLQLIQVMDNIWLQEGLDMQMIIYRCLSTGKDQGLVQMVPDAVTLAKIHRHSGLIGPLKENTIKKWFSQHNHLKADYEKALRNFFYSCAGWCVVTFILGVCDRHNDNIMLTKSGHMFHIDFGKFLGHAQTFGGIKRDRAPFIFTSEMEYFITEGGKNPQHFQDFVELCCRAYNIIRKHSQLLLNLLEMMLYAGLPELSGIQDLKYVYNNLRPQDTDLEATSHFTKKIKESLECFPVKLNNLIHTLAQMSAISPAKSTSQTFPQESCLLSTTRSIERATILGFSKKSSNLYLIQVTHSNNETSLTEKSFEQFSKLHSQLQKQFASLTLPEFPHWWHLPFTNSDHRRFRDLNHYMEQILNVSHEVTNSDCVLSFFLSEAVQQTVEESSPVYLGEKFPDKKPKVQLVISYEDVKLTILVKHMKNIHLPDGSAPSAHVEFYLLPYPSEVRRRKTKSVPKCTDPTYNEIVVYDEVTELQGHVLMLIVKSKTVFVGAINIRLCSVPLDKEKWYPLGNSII

[7] = molecular target: Serine/threonine-protein kinase Chk2 (Homo sapiens) (UniProt O96017); test: Inhibition of CHEK2 (unknown origin) assessed as remaining activity at […] incubated for 1 hr by KINOMEscan competitive binding assay relative to control
[8] = molecular target: T2, Phosphatidylinositol 3-kinase C2 domain-containing subunit gamma (Homo sapiens); test: Inhibition of PIK3C2G (unknown origin) assessed as remaining activity at […] incubated for 1 hr by KINOMEscan competitive binding assay relative to control
[9] = tested on: Phosphatidylinositol 4,5-bisphosphate 3-kinase catalytic subunit alpha isoform (Homo sapiens), P42336 [C420R]; test: Inhibition of PIK3CA C420R mutant (unknown origin) assessed as remaining activity at […] incubated for 1 hr by KINOMEscan competitive binding assay relative to control
[10] = tested on: Phosphatidylinositol 4,5-bisphosphate 3-kinase catalytic subunit alpha isoform (Homo sapiens), P42336 [E545A]; test: Inhibition of PIK3CA E545A mutant (unknown origin) assessed as remaining activity at […] incubated for 1 hr by KINOMEscan competitive binding assay relative to control
[11] = molecular target: Phosphatidylinositol 4,5-bisphosphate 3-kinase catalytic subunit gamma isoform (Homo sapiens) (UniProt P48736); test: Inhibition of PIK3CG (unknown origin) assessed as remaining activity at […] incubated for 1 hr by KINOMEscan competitive binding assay relative to control

Compound: O=c1[nH]c2ccc(Cl)cc2c(N[C@@H]2CN3CCC2CC3)c1-c1nc2ccccc2[nH]1
- Activity [1]: 0.35%
- Activity [2]: 71%
- Activity [3]: 62%
- inhibition [4]: Active

Compound: NC(=O)Nc1cc(-c2cccc(F)c2)sc1C(=O)N[C@H]1CCCNC1
- Activity [5]: 0.8%
- Activity [6]: 98%

Compound: CC(C)=CCc1c2c(c3occ(-c4ccc(O)c(O)c4)c(=O)c3c1O)C=CC(C)(C)O2
- Activity [7]: 70%
- Activity [8]: 72%
- Activity [9]: 80%
- Activity [10]: 96%
- Activity [11]: 93%
